Data reported in PubChem BioAssay (NCI).
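Results reflect a 48-hour exposure of cells in 96-well plates to compound at five concentrations. At the GI50, growth is halved. TGI is the concentration that stops growth completely.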

The compounds below were run on CCRF-CEM leukemia (assay: NCI anticancer screen, dose series, 48 h).

SMILES | TGI | GI50
COc1ccc2c3c1O[C@H]1C(OC)C=CC4C(C2)N(Cc2cccs2)CCC341 (stereo partly specified) | > 100 µM | 
Nc1nc(SCCc2ccccc2)nc2nc3c(c(-c4ccccc4)c12)CCCC3 | > 100 µM | 
C=CCOC(=O)NC1C(OC(C)[C@@H](NC(=O)OCc2ccccc2)C(=O)OC(C)(C)C)OC(COC(C)=O)C(OC(C)=O)C1OC(C)=O (stereo partly specified) | > 100 µM | 
O=c1[nH]nc(NNc2ccccc2)c2nnn(C3CCCCC3)c12 | > 100 µM | 
C=C1/C(=C\C=C2/CCC[C@]3(C)[C@@H]([C@H](C)CCCC(C)(C)O)CC[C@@H]23)C[C@@H](OC(=O)CBr)C[C@@H]1O | 0.307 µM | 0.0491 µM
COc1ccc(-n2c(=O)[nH]n(C(C)=O)c2=O)cc1 | > 100 µM | 
O=C(c1ccc(Cl)cc1)N(C(=O)N1CCC(c2ccccc2)CC1)c1ccccc1 | 77.4 µM | 

Each compound was assayed on SF-539 CNS (assay: NCI anticancer screen, dose series, 48 h).

SMILES | TGI | GI50
Nc1nc(SCCc2ccccc2)nc2nc3c(c(-c4ccccc4)c12)CCCC3 | > 100 µM | 
C=CCOC(=O)NC1C(OC(C)[C@@H](NC(=O)OCc2ccccc2)C(=O)OC(C)(C)C)OC(COC(C)=O)C(OC(C)=O)C1OC(C)=O (stereo partly specified) | > 100 µM | 
C=C1/C(=C\C=C2/CCC[C@]3(C)[C@@H]([C@H](C)CCCC(C)(C)O)CC[C@@H]23)C[C@@H](OC(=O)CBr)C[C@@H]1O | 0.629 µM | 0.212 µM
COc1ccc(-n2c(=O)[nH]n(C(C)=O)c2=O)cc1 | > 100 µM | 
O=C(c1ccc(Cl)cc1)N(C(=O)N1CCC(c2ccccc2)CC1)c1ccccc1 | > 100 µM | 

These compounds were tested on SK-MEL-2 melanoma (assay: NCI anticancer screen, dose series, 48 h).

SMILES | TGI | GI50
O=c1[nH]nc(NNc2ccccc2)c2nnn(C3CCCCC3)c12 | > 100 µM | 
C=C1/C(=C\C=C2/CCC[C@]3(C)[C@@H]([C@H](C)CCCC(C)(C)O)CC[C@@H]23)C[C@@H](OC(=O)CBr)C[C@@H]1O | 28.6 µM | 9.75 µM
COc1ccc(-n2c(=O)[nH]n(C(C)=O)c2=O)cc1 | > 100 µM | 
O=C(c1ccc(Cl)cc1)N(C(=O)N1CCC(c2ccccc2)CC1)c1ccccc1 | > 100 µM | 

Each compound was assayed on CAKI-1 renal (assay: NCI anticancer screen, dose series, 48 h).

SMILES | TGI | GI50
COc1ccc2c3c1O[C@H]1C(OC)C=CC4C(C2)N(Cc2cccs2)CCC341 (stereo partly specified) | > 100 µM | 
Nc1nc(SCCc2ccccc2)nc2nc3c(c(-c4ccccc4)c12)CCCC3 | > 100 µM | 
C=CCOC(=O)NC1C(OC(C)[C@@H](NC(=O)OCc2ccccc2)C(=O)OC(C)(C)C)OC(COC(C)=O)C(OC(C)=O)C1OC(C)=O (stereo partly specified) | > 100 µM | 
O=c1[nH]nc(NNc2ccccc2)c2nnn(C3CCCCC3)c12 | > 100 µM | 
C=C1/C(=C\C=C2/CCC[C@]3(C)[C@@H]([C@H](C)CCCC(C)(C)O)CC[C@@H]23)C[C@@H](OC(=O)CBr)C[C@@H]1O | 15.8 µM | 3.19 µM
COc1ccc(-n2c(=O)[nH]n(C(C)=O)c2=O)cc1 | > 100 µM | 
O=C(c1ccc(Cl)cc1)N(C(=O)N1CCC(c2ccccc2)CC1)c1ccccc1 | > 100 µM | 

What follows are compounds tested on UACC-62 melanoma (assay: NCI anticancer screen, dose series, 48 h).

SMILES | TGI | GI50
Nc1nc(SCCc2ccccc2)nc2nc3c(c(-c4ccccc4)c12)CCCC3 | > 100 µM | 
C=CCOC(=O)NC1C(OC(C)[C@@H](NC(=O)OCc2ccccc2)C(=O)OC(C)(C)C)OC(COC(C)=O)C(OC(C)=O)C1OC(C)=O (stereo partly specified) | > 100 µM | 
C=C1/C(=C\C=C2/CCC[C@]3(C)[C@@H]([C@H](C)CCCC(C)(C)O)CC[C@@H]23)C[C@@H](OC(=O)CBr)C[C@@H]1O | 9.84 µM | 3.29 µM
COc1ccc(-n2c(=O)[nH]n(C(C)=O)c2=O)cc1 | > 100 µM | 
O=C(c1ccc(Cl)cc1)N(C(=O)N1CCC(c2ccccc2)CC1)c1ccccc1 | > 100 µM | 

What follows are compounds tested on NCI/ADR-RES ovarian (assay: NCI anticancer screen, dose series, 48 h).

SMILES | TGI | GI50
COc1ccc2c3c1O[C@H]1C(OC)C=CC4C(C2)N(Cc2cccs2)CCC341 (stereo partly specified) | > 100 µM | 
Nc1nc(SCCc2ccccc2)nc2nc3c(c(-c4ccccc4)c12)CCCC3 | > 100 µM | 
C=CCOC(=O)NC1C(OC(C)[C@@H](NC(=O)OCc2ccccc2)C(=O)OC(C)(C)C)OC(COC(C)=O)C(OC(C)=O)C1OC(C)=O (stereo partly specified) | > 100 µM | 
O=c1[nH]nc(NNc2ccccc2)c2nnn(C3CCCCC3)c12 | > 100 µM | 
C=C1/C(=C\C=C2/CCC[C@]3(C)[C@@H]([C@H](C)CCCC(C)(C)O)CC[C@@H]23)C[C@@H](OC(=O)CBr)C[C@@H]1O | 18.7 µM | 1.95 µM
COc1ccc(-n2c(=O)[nH]n(C(C)=O)c2=O)cc1 | > 100 µM | 
O=C(c1ccc(Cl)cc1)N(C(=O)N1CCC(c2ccccc2)CC1)c1ccccc1 | > 100 µM | 

Each compound was assayed on OVCAR-5 ovarian (assay: NCI anticancer screen, dose series, 48 h).

SMILES | TGI | GI50
COc1ccc2c3c1O[C@H]1C(OC)C=CC4C(C2)N(Cc2cccs2)CCC341 (stereo partly specified) | > 100 µM | 
C=CCOC(=O)NC1C(OC(C)[C@@H](NC(=O)OCc2ccccc2)C(=O)OC(C)(C)C)OC(COC(C)=O)C(OC(C)=O)C1OC(C)=O (stereo partly specified) | > 100 µM | 
O=c1[nH]nc(NNc2ccccc2)c2nnn(C3CCCCC3)c12 | > 100 µM | 
C=C1/C(=C\C=C2/CCC[C@]3(C)[C@@H]([C@H](C)CCCC(C)(C)O)CC[C@@H]23)C[C@@H](OC(=O)CBr)C[C@@H]1O | 19.3 µM | 1.55 µM
COc1ccc(-n2c(=O)[nH]n(C(C)=O)c2=O)cc1 | > 100 µM | 
O=C(c1ccc(Cl)cc1)N(C(=O)N1CCC(c2ccccc2)CC1)c1ccccc1 | 57.3 µM | 

What follows are compounds tested on M14 melanoma (assay: NCI anticancer screen, dose series, 48 h).

SMILES | TGI
COc1ccc2c3c1O[C@H]1C(OC)C=CC4C(C2)N(Cc2cccs2)CCC341 (stereo partly specified) | > 100 µM
Nc1nc(SCCc2ccccc2)nc2nc3c(c(-c4ccccc4)c12)CCCC3 | > 100 µM
C=CCOC(=O)NC1C(OC(C)[C@@H](NC(=O)OCc2ccccc2)C(=O)OC(C)(C)C)OC(COC(C)=O)C(OC(C)=O)C1OC(C)=O (stereo partly specified) | > 100 µM
